Results reported in patent US9512407B2, “Cells and methods for obtaining them” (GENOME RESEARCH LIMITED, priority 2009, dated 2016).
Entries after “also recorded” stand apart in the source; their conditions may differ.

What was measured:
[1] = tested on: Oct4-IRES-Puro-Egfp MEFs; experiment: Reprogramming of Oct4 reporter MEFs to iPSCs by PB transposition of Yamanaka factors (colony number); type: cell-based, mouse
Text: To investigate the role of RA signalling in reprogramming, we cloned cDNAs of Oct4, Sox2, Klf4, cMyc, Rara and Rarg into a PB-MSCV vector where expression of the cDNAs was controlled by the MSCV LTR (FIG. 6A). Although exogenous c-Myc is not essential for reprogramming, omission of it reduces reprogramming efficiency and delays the process (23, 30). The individual PB-MSCV-cDNA vectors were co-transfected with a PB transposase plasmid into MEFs (FIG. 1A). PB transposition facilitates efficient integration of the PB transposon into the genome, thus ensuring stable expression of the cDNAs (31).
(§1) ES cell pluripotency requires proper levels of Oct4 (Pou5f1) expression (32), and activation of Oct4 is known to be a crucial event in reprogramming (3). To monitor activation of the endogenous Oct4 locus in reprogramming and to allow unbiased assessment of iPSC quality, we made an Oct4 reporter mouse line where the IRES-Puro-GFP cassette was targeted to the 3′UTR of the Oct4 locus (FIG. 6B). The targeted ES cells were resistant to 2.0 μg/ml Puromycin (Puro) selection. These ES cells were not visibly green under fluorescent microscope but could be distinguished by flow cytometry (FIG. 6C). […] MEFs from the Oct4 reporter mice were thus used in all the MEF reprogramming experiments, and consequently, reprogramming and iPSC quality could be conveniently monitored and assessed by either Puro resistance or GFP expression in iPSCs.
MEFs were prepared from 12.5 d.p.c. Oct4-IRES-Puro-Egfp embryos. To reduce embryo-to-embryo difference, MEFs from several embryos with the same genotype were mixed together for expansion in M10 media. MEFs were passaged once before they were counted, aliquoted and frozen down. Before electroporation, 1×10^6 MEFs were plated onto one gelatinized 15-cm tissue culture plate. When MEFs were 70-80% confluent, they were typsinized and collected for electroporation. M10: knockout DMEM, 10% foetal bovine serum (FBS, Hyclone), 1×GPS, 1× non-essential amino acids (NEAA, Invitrogen).
MEFs transfection was performed using an Amaxa machine (Lonza) according to the manufacturer's protocol (program A-023). After electroporation, MEFs were seeded in M15 plus LIF on STO feeders. For Tet-On experiments, M15 containing Doxycycline (1.0 μg/ml) was added 24 hours after transfection and was changed every other day. iPSC colonies were usually picked at day 7 to day 10 to 96 well plates and cells were expanded according to standard mouse ES cell culture conditions.
Mouse and human iPSC colonies were visualized by alkaline phosphatase staining using the Leukocyte Alkaline Phosphatase kit (Sigma).
FIG. 1. RA signalling in reprogramming. A. Schematic of the reprogramming strategy by piggyBac (PB) transposition. Oct4 reporter MEFs were transfected with the PB-MSCV-cDNA transposon and transposase plasmids, and were plated directly onto STO feeders. ES-like colonies usually appeared in three weeks. M10 and M15 are media for MEFs and ES cells, respectively. B-C. Expressing Rara or Rarg, together with the four Yamanaka factors, drastically promoted reprogramming while inhibiting RA signalling by expressing Rara-DN blocked reprogramming. iPSC colonies were visualized by alkaline phosphatase staining. The reprogramming control was PB-PGK-Neo plus Yamanaka factors. **: P<0.005; ***: P<0.0005. FL: full-length cDNA; DN: dominant-negative form. D. Temporal requirement of RA signalling in reprogramming. Agonist of Rarg (CD437) was added at various stages of reprogramming. […]

[2] = tested on: Oct4 locus; experiment: iPSC quality by Puro resistance and GFP expression from the Oct4 locus (flow cytometry); type: cell-based, mouse; conditions: for quality of iPS cells, measured by FACS: agonist with four Yamanaka factors, up to 8 days
Description: as §1
Expression of the endogenous Oct4 is unstable in iPSCs reprogrammed by the four Yamanaka factors (11). […] Further analysis confirmed their partially reprogrammed status: low levels of endogenous pluripotency gene expression (FIG. 1E), and retention of substantial DNA methylation in the differentially methylated regions (DMRs) in the Nanog and Rex1 promoters (FIG. 1F). On the other hand, a small number of colonies were obtained which were resistant to 2.0 μg/ml Puro, and were similar to ES cells regarding pluripotency gene expression, demethylation at the Nanog and Rex1 promoters, and GFP expression (FIG. 1E-F and FIG. 6E). […] In subsequent experiments, we used resistance to 2.0 μg/ml Puro or GFP expression as surrogate criteria for pluripotency quality of mouse primary iPSCs reprogrammed from Oct4-Puro-GFP MEFs.
Mouse iPSCs growing in 96 well feeder plates were trypsinized and resuspended in M15. iPSCs were spun down at 1,000 rpm for 3 minutes, and the medium was removed by putting the plate upside down on tissue. iPSCs were resuspended in PBS and analyzed by Cytomics FC-500 (Beckman Coulter).
We cloned the four Yamanaka factors into the PB transposons separately where expression of each cDNA was controlled by the LTR of MSCV (PB-MSCV-cDNAs, FIG. 6c). These four transposons and the PB transposase (PBase) plasmid were subsequently transfected into Oct4-IRES-Puro-Egfp MEFs. iPS cell colonies resembling those of regular ES cells appeared in three weeks. Most iPS colonies survived 1.0 or 1.5 μg/ml Puro but very few were able to grow in 2.0 μg/ml Puro. […] RT-PCR and DMR sequencing confirmed that these iPS clones growing in 2.0 μg/mL Puro were more similar to regular ES cells than those clones selected by 1.0 or 1.5 μg/mL Puro in terms of pluripotent gene expression and DNA methylation at promoters of these genes (data not shown). […] We thus used 2.0 μg/mL or higher concentration of Puro in combination of flow cytometry to quantitatively evaluate iPS cell quality in the subsequent experiments.

[3] = tested on: Dox-independent human iPSCs; experiment: Signalling dependency of human iPSCs (growth, qRT-PCR); type: cell-based; conditions: KSR-2i-LIF media
Description: In contrast to dependence on Lif/Jak/Stat pathway for pluripotency maintenance in mouse ES cells, conventional human ES cells derived from embryos are cultured in media containing FGF2 (basic FGF), and LIF alone is insufficient to maintain pluripotency (44, 45). […] Conventional human ES cells are resistant to JAK inhibitor (JAKi) but are differentiated in the presence of BMP4. […] Finally, compared to human ES cells, our human iPSCs expressed lower levels of lineage specific genes such as PAX6, GATA6, and SOX17 in KSR-2i-LIF media (FIG. 5H).
Human iPSCs reprogrammed by PB-CAG vectors were cultured in M15 media, with […] human recombinant LIF. Human iPSCs reprogrammed by PB-TRE vectors were maintained in DMEM/F12 with 1×GPS (Invitrogen), 20% Knockout Serum Replacement (Invitrogen), 1×NEAA, 0.1 mM β-mercaptoethanol (β-ME, Sigma) and two inhibitors, CHIR99021 (5 μM) and PD0325901 (1 μM).
RNA was isolated using the RNeasy Mini Kit (Qiagen). The samples were subsequently quantified and treated with gDNA WipeOut. First-strand cDNA was prepared using the QuantiTect Reverse Transcription Kit (Qiagen). For each RT-PCR reaction, we used 50-100 ng of cDNA and primers listed in Supplementary Table 5. Standard PCR conditions were: 94° C. for 30 s, 60° C. for 30 s, 68° C. for 30 s; X 30 cycles. For real-time PCR, we used Taqman Gene Expression Assays. Taqman probes were either purchased from Applied Biosciences (Supplementary Table 6). All quantitative PCR was performed in a […] Fast Real-Time PCR System (Applied Biosciences). Mouse gene expression was determined relative to mouse Gadph using the ΔCt method. Human gene expression was determined relative to human GADPH gene using the ΔCt method.
FIG. 5. Production and characterization of Dox-independent unique human iPSCs. A. Conservation of RAREoct sequence in several mammalian species. B. Reprogramming HDFn cells using the Tet-On six-factor platform. PB-TRE-cDNA transposon, PB-CAG-rtTA and transposase plasmids were transfected into HDFs which were plated onto STO feeders. Dox (2.0 μg/ml) was added 24 hours post transfection. Dox induction usually lasted for 15-20 days. Colonies were picked for expansion at up to 30 days after transfection. Alternatively, immediately once Dox was removed, colonies were trypsinized and re-plated to a new feeder plate for secondary colony formation. C. Typical human iPSC colony morphology and AP staining. Scale bars: 10.0 μm. D. qRT-PCR analysis of pluripotency genes in parental HDFn, human iPSCs and H1 hESC cells. HiPS15-5 and -10 were two Dox-independent iPSC lines generated from one transfection. […] H. Signalling dependency of human iPSCs measured by gene expression (qRT-PCR). […] Quantitative analysis of gene expression was performed relative to GADPH. […]

[4] = tested on: Rex1-Puro-IRES-Egfp knock-in mouse ES cell line; experiment: RA induced ES cell differentiation, Puro selection; type: cell-based; conditions: all-trans retinoic acid; antagonist added or cDNA over-expressed
Text: Insertion of this transposon into the mouse genome can either up-regulate genes near the insertion sites or disrupt them, depending on the structure of the insertion allele. To efficiently eliminate differentiated ES cells in the culture, we targeted the Puro-IRES-Egfp cassette to the Rex1 locus (FIG. 12b). Consequently, undifferentiated ES cells would be resistant to Puromycin (Puro) selection and GFP^+ in flow cytometry, while differentiated cells would be killed by Puro selection and become GFP^− due to rapid lose of Rex1 expression upon differentiation.
A library of mutant ES cells were differentiated with 1.0 μM all-trans retinoic acid (RA) for 4 days and subsequently selected with Puromycin (FIG. 12c). Several Pura^r ES cell clones were identified from independent mutant ES cell pools. Splinkrette PCR analysis identified PB integration sites in genes encoding Rarg, Pparg and Gclc. For Pparg, PB insertion caused over-expression of the entire protein coding sequences. In contrast, Rarg locus had four independent PB insertions, all found in intron 9 (the last intron) (FIG. 12d). These PB insertions caused truncation of Rarg which misses amino acids encoded by exon 10. […] This truncated Rarg likely functioned as a dominant negative form of wild type Rarg (Rarg-DN).
FIG. 12. […]

Compound: O=C(O)c1ccc2cc(-c3ccc(O)c(C45CC6CC(CC(C6)C4)C5)c3)ccc2c1 [CD437]
- iPS cell colony number ([1]; 100 nM for up to eight day, with four Yamanaka factors): greatly increased
- reprogramming of MEFs to iPSCs ([1]; added to culture media at recommended concentration for 4 or 8 days, with four Yamanaka factors): drastically increased
- iPS colony number ([1]; treatment beyond 8 days (day 1-12)): substantially reduced
- reprogramming efficiency ([1]; treatment beyond 8 days after transfection): reduced reprogramming efficiency
- GFP expression from the Oct4 locus in colonies (iPSC quality) ([2]; CD437 day 1-4): expressed GFP; also recorded: Improvement of iPSC quality
- survival of Puro selection ([2]; CD437 day 1-4, 2.0 μg/ml Puro): survived 2.0 μg/ml Puro selection
- quality of iPS cells, measured by FACS [2]: significantly improved

Compound: BMP4: BMP4 added to human iPSC culture
- growth and pluripotency gene expression of human iPSCs in the presence of the agent [3]: proliferated well

Compound: CC1(C)CCC(C)(C)c2cc(C(=O)Nc3ccc(C(=O)O)cc3)ccc21 [Am580]
- reprogramming efficiency ([1]; administrated for 8 days, with four Yamanaka factors): improved reprogramming efficiency
- quality of iPS cells, measured by FACS [2]: little effect

Compound: CCCCCCCOc1cc2c(cc1/C(C)=C/c1ccc(C(=O)O)cc1)C(C)(C)CCS2(=O)=O [Ro-41-5253]
- ES cell differentiation induced by RA [4]: block ES cell differentiation

Compound: COCCOCOc1cc2ccc(-c3ccc(C(=O)O)cc3)cc2cc1C12CC3CC(CC(C3)C1)C2 [CD2665]
- quality of partially reprogrammed clones ([2]; 10 μM, two independent partially reprogrammed clones): significantly improved
- effect on quality of partially reprogrammed clones ([2]; 10 μM, used together with 5-Aza): more obvious
- GFP status of partially reprogrammed clones ([2]; after treatment for 4 days, with or without 5-Aza): largely GFP negative
- ES cell differentiation induced by RA [4]: block ES cell differentiation

Compound: Cc1c[nH]c(/C=C2\C(=O)Nc3ccccc32)c1CCC(=O)O [SU54021]
- growth and pluripotency gene expression of human iPSCs in the presence of the agent [3]: grew well and kept pluripotency gene expression
- growth and pluripotency gene expression of human iPSCs in the presence of the agent ([3]; listed as FGFRi): Robust expression of pluripotency genes

Compound: CC(C)(C)c1nc2c3cc[nH]c(=O)c3c3cc(F)ccc3c2[nH]1 [JAK inhibitor]
- growth and pluripotency gene expression of human iPSCs in the presence of the agent [3]: lost expression of OCT4 and NANOG and were rapidly differentiated
